# Test results taken from patent publication US20040028760A1, “Method of treating inflammation and inflammation-related pain” (Michigan State University, priority 2002, published 2004).
# Entries after “also recorded” stand apart in the source; their conditions may differ. Where two headings read alike, the source gives them in different places.
# Tests used:
# [1] = molecular target: T1, human PGHS-II (COX-II) enzyme (Homo sapiens, UniProt P35354); experiment: Cyclooxygenase inhibitory assay (initial rate of O2 uptake), COX-II; type: biochemical
# T1 construct: made in house; host or cells: insect cells (lysates)
# T1 sequence (P35354 18-604): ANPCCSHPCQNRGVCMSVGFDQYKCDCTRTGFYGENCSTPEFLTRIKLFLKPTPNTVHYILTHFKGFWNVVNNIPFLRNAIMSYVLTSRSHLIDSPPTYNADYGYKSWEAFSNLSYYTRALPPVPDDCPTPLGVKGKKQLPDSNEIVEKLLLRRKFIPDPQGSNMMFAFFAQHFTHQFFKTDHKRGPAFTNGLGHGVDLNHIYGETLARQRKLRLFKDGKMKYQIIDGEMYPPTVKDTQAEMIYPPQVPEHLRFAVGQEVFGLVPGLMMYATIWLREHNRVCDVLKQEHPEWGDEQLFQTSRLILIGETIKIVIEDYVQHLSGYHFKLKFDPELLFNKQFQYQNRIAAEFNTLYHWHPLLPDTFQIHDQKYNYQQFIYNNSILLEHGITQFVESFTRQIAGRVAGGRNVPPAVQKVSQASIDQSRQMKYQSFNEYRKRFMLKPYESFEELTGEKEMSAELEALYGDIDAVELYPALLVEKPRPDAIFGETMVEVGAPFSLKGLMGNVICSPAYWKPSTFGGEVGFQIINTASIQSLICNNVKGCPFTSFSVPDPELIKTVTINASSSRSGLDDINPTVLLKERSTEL
# Description: (§1) Prostaglandin H synthase isozymes-I (PGHS-I or COX-I) was prepared from ram seminal vesicles. PGHS-II or COX-II enzyme for the assay was prepared from lysates of cloned insect cell with human PGHS-II enzyme. Each assay mixture contained 600 μL of 0.1 M Tris buffer (pH 7), 1 mM phenol, 17 μg hemoglobin and 10 μL of COX-I or 20-30 μL of COX-II enzymes. Crude extracts or pure compounds were preincubated with 25-100 μg mL^−1 in DMSO for 5-minutes with COX-I or COX-II enzymes in the assay chamber at 37° C. […] Instantaneous inhibition of the enzyme was determined by monitoring the initial rate of O2 uptake using an O2 electrode.
# [2] = molecular target: T2, prostaglandin H endoperoxide synthase-I (COX-I) (Ovis aries, UniProt P05979); experiment: Cyclooxygenase inhibitory assay (initial rate of O2 uptake), COX-I; type: biochemical, ram; details: for inhibition at 100 µg/mL: read-out: COX-I inhibitory activity
# T2 construct: was prepared from ram seminal vesicles; from tissue; host or cells: ram seminal vesicles
# T2 sequence (P05979 25-600): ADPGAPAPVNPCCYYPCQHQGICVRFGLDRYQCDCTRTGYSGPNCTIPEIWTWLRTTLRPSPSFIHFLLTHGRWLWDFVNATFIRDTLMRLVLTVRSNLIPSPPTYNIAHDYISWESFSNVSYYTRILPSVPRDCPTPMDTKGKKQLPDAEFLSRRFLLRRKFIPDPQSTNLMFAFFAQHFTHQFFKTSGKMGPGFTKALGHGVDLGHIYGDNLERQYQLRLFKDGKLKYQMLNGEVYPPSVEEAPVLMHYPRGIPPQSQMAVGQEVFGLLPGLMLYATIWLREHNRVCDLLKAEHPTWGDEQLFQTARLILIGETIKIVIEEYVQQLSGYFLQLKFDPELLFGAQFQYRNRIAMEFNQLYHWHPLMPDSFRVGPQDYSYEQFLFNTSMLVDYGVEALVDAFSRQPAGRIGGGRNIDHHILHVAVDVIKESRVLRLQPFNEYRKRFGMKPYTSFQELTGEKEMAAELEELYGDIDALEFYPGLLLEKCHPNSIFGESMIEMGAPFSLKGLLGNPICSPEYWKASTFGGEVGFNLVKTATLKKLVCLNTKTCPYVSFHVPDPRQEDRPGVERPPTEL
# Description: as §1
# cyclooxygenase = molecular target: T3, cyclooxygenase; type: biochemical
# T3 construct: "prepared from ram seminal vesicles"
# Description: as §1
# COX-I = details: less than 500 μM; cited from earlier work
# COX-II = molecular target: T4, COX-II (Ovis aries, UniProt P79208); details: less than 500 μM; cited from earlier work
# T4 sequence (P79208 17-603): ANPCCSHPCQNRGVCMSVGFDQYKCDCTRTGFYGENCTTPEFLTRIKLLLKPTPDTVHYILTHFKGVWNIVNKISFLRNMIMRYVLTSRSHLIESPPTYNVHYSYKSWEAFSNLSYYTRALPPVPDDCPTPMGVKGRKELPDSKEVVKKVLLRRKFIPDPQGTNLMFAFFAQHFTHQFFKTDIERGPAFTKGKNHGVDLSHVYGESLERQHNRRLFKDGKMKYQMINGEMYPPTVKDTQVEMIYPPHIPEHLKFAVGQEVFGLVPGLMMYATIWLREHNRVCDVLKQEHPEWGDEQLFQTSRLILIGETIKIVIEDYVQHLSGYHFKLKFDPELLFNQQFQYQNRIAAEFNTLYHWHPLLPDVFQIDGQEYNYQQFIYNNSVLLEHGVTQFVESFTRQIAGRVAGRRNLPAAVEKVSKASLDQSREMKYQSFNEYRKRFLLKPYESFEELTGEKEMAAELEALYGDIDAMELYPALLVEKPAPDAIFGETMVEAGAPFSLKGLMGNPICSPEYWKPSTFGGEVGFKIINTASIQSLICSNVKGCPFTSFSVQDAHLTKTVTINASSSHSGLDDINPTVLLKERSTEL
# [3] = 100 μg mL^−1, compared to solvent control
smiles,measurement,setting,value
"COc1cc(OC)c(C(=O)O)cc1OC [2,4,5-trimethoxybenzoicacid, reference compound]",COX-II inhibition (result in words),[1]; 100 μg mL^−1,didn't exhibit any inhibition
same,COX-I inhibition (result in words),[2]; 100 μg mL^−1,didn't exhibit any inhibition
"CS(=O)(=O)c1ccc(C2=C(c3ccccc3)C(=O)OC2)cc1 [Vioxx, reference compound]",COX-II/COX-I ratio,[1],75
CC(C)Cc1ccc(C(C)C(=O)O)cc1 (stereo not drawn) [Ibuprofen],IC50 values,cyclooxygenase,2.52 mg/L
"COc1ccc2cc([C@H](C)C(=O)O)ccc2c1 [Naproxen, reference compound]",COX-II/COX-I ratio,[1],0.92
same,IC50 values,"cyclooxygenase; concentration at which the reference drug was assayed, isozyme not stated",2.06 mg/L
"CCCCCCCC/C=C\CCCCCCCC(=O)O [Compound 2, oleic acid]",inhibition at 100 µg/mL,[1]; 100 μg mL^−1,68.4%
same,COX-II/COX-I ratio,[1]; [3],1.51
same,COX-I inhibition (in words),COX-I,not COX-I or COX-II inhibitory
same,inhibition at 100 µg/mL,[2]; 100 μg mL^−1,45.3%
same,COX-II inhibition (in words),COX-II,not COX-I or COX-II inhibitory
"C/C=C/c1cc(OC)c(OC)cc1OC [Compound 3, trans-asarone]",COX-II inhibitory activity,[1]; 100 μg mL^−1,64.39%
same,COX-II/COX-I ratio,[1]; [3],1.4
same,COX-I inhibitory activity,[2]; 100 μg mL^−1,46.15%
"COc1cc(OC)c(OC)cc1C=O [Synthetic 2,4,5-trimethoxybenzaldehyde, 2,4,5-trimethoxybenzaldehyde, reference compound]",COX-II inhibition of commercial synthetic sample versus natural product (in words),[1]; 25-100 μg mL^−1,slightly lower COX-II activity than natural form
"CC(C)=CCC/C(C)=C/CO [Compound 4, geraniol]",COX-II inhibition (result in words),[1]; 100 μg mL^−1,not active; also recorded: did not inhibit
same,inhibition at 100 µg/mL,[1]; 100 μg mL^−1,0%
same,COX-I inhibition (result in words),[2]; 100 μg mL^−1,not active; also recorded: did not inhibit
same,inhibition at 100 µg/mL,[2]; 100 μg mL^−1,3.15%
"COc1cc(OC)c(OC)cc1C=O [Compound 1, 2,4,5-trimethoxybenzaldehyde]",inhibition at 25 µg/mL,[1]; 25 μg mL^−1,> 30%
same,inhibition at 100 µg/mL,[1]; 100 μg mL^−1,52.7%
same,selectivity towards COX-II enzyme inhibition (in words),"[1]; 100 μg mL^−1, COX-II versus COX-I",selectivity towards COX-II enzyme inhibition; also recorded: selective inhibition of COX-II enzyme
same,COX-II/COX-I ratio,[1]; [3],17.68
same,inhibition at 100 µg/mL,[2],3.32%
